Test results: patent US7138361B2, “Herbicidal heterocycles” (E. I. du Pont de Nemours and Company, priority 2000, dated 2006)

What was measured:
Assay in all cases: Test C postemergence
Type in all cases: in vivo
[1] = test system: velvetleaf (Abutilon theophrasti)
In short: (§1)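 Plants held in greenhouse for 12–14 days post-application are scored by eye against controls on a 0–100 control scale. Application timing: preemergence on sown seed, or postemergence on 2–18 cm plants.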

soybean (Glycine max) = test system: soybean (Glycine max)
In short: as §1

[2] = test system: goosegrass (Eleusine indica)
In short: as §1

[3] = test system: lambsquarters (Chenopodium album)
In short: as §1

[4] = Rate 125 g/ha, scale 0 to 100, 0 no effect, 100 complete control
[5] = Rate 250 g/ha, scale 0 to 100 (0 no effect, 100 complete control)
[6] = Rate 500 g/ha, scale 0 to 100 (0 no effect, 100 complete control)

CCC(C)c1ccn(C2SCN(c3cccc(OC(F)(F)F)c3)C2=O)n1 (stereo not drawn) [Compound 40]
Plant response rating, Velvetleaf ([1]; Rate 62 g/ha, scale 0 to 100): 0 | Plant response rating, Velvetleaf [1, 4]: 0 | Plant response rating, Velvetleaf [1, 5]: 0 | Plant response rating, Velvetleaf [1, 6]: 20 | Plant response rating, Soybean (soybean (Glycine max); Rate 62 g/ha, scale 0 to 100): 0 | Plant response rating, Soybean (soybean (Glycine max); [4]): 0 | Plant response rating, Soybean (soybean (Glycine max); [5]): 0 | Plant response rating, Soybean (soybean (Glycine max); [6]): 0 | Plant response rating, Goosegrass ([2]; Rate 62 g/ha, scale 0 to 100): 0 | Plant response rating, Goosegrass [2, 4]: 0 | Plant response rating, Goosegrass [2, 5]: 0 | Plant response rating, Goosegrass [2, 6]: 20 | Plant response rating, Lambsquarters ([3]; Rate 62 g/ha, scale 0 to 100): 20 | Plant response rating, Lambsquarters [3, 4]: 40 | Plant response rating, Lambsquarters [3, 5]: 50 | Plant response rating, Lambsquarters [3, 6]: 70

CCC(C)c1ccn(C2CCN(c3ccc(C)c(OC)c3)C2=O)n1 (stereo not drawn) [Compound 80]
Plant response rating, Velvetleaf ([1]; Rate 62 g/ha, scale 0 to 100): 20 | Plant response rating, Velvetleaf [1, 4]: 20 | Plant response rating, Velvetleaf [1, 5]: 20 | Plant response rating, Velvetleaf [1, 6]: 20 | Plant response rating, Soybean (soybean (Glycine max); Rate 62 g/ha, scale 0 to 100): 50 | Plant response rating, Soybean (soybean (Glycine max); [4]): 60 | Plant response rating, Soybean (soybean (Glycine max); [5]): 70 | Plant response rating, Soybean (soybean (Glycine max); [6]): 90 | Plant response rating, Goosegrass ([2]; Rate 62 g/ha, scale 0 to 100): 0 | Plant response rating, Goosegrass [2, 4]: 0 | Plant response rating, Goosegrass [2, 5]: 0 | Plant response rating, Goosegrass [2, 6]: 0 | Plant response rating, Lambsquarters ([3]; Rate 62 g/ha, scale 0 to 100): 10 | Plant response rating, Lambsquarters [3, 6]: 90

CCC(CC)c1ccn(C2CCN(c3ccc(C)c(OC)c3)C2=O)n1 (stereo not drawn) [Compound 81]
Plant response rating, Velvetleaf ([1]; Rate 31 g/ha, scale 0 to 100): 20 | Plant response rating, Velvetleaf ([1]; Rate 62 g/ha, scale 0 to 100): 20 | Plant response rating, Velvetleaf [1, 4]: 20 | Plant response rating, Velvetleaf [1, 5]: 20 | Plant response rating, Soybean (soybean (Glycine max); Rate 31 g/ha, scale 0 to 100): 50 | Plant response rating, Soybean (soybean (Glycine max); Rate 62 g/ha, scale 0 to 100): 60 | Plant response rating, Soybean (soybean (Glycine max); [4]): 70 | Plant response rating, Soybean (soybean (Glycine max); [5]): 90 | Plant response rating, Goosegrass ([2]; Rate 31 g/ha, scale 0 to 100): 0 | Plant response rating, Goosegrass ([2]; Rate 62 g/ha, scale 0 to 100): 0 | Plant response rating, Goosegrass [2, 4]: 0 | Plant response rating, Goosegrass [2, 5]: 20 | Plant response rating, Lambsquarters ([3]; Rate 31 g/ha, scale 0 to 100): 0 | Plant response rating, Lambsquarters ([3]; Rate 62 g/ha, scale 0 to 100): 60 | Plant response rating, Lambsquarters [3, 5]: 80

COc1cc(N2CCC(n3ccc(C(C)C)n3)C2=O)ccc1C (stereo not drawn) [Compound 85]
Plant response rating, Velvetleaf ([1]; Rate 62 g/ha, scale 0 to 100): 40 | Plant response rating, Velvetleaf [1, 4]: 40 | Plant response rating, Velvetleaf [1, 5]: 40 | Plant response rating, Velvetleaf [1, 6]: 40 | Plant response rating, Soybean (soybean (Glycine max); Rate 62 g/ha, scale 0 to 100): 60 | Plant response rating, Soybean (soybean (Glycine max); [4]): 60 | Plant response rating, Soybean (soybean (Glycine max); [5]): 70 | Plant response rating, Soybean (soybean (Glycine max); [6]): 70 | Plant response rating, Goosegrass ([2]; Rate 62 g/ha, scale 0 to 100): 10 | Plant response rating, Goosegrass [2, 4]: 10 | Plant response rating, Goosegrass [2, 5]: 20 | Plant response rating, Goosegrass [2, 6]: 60 | Plant response rating, Lambsquarters ([3]; Rate 62 g/ha, scale 0 to 100): 70 | Plant response rating, Lambsquarters [3, 4]: 90 | Plant response rating, Lambsquarters [3, 5]: 100 | Plant response rating, Lambsquarters [3, 6]: 100

CCCC(C)c1ccn(C2OCN(c3cccc(OC(F)(F)F)c3)C2=O)n1 (stereo not drawn) [Compound 91]
Plant response rating, Velvetleaf ([1]; Rate 62 g/ha, scale 0 to 100): 0 | Plant response rating, Velvetleaf [1, 4]: 0 | Plant response rating, Velvetleaf [1, 5]: 0 | Plant response rating, Velvetleaf [1, 6]: 0 | Plant response rating, Soybean (soybean (Glycine max); Rate 62 g/ha, scale 0 to 100): 0 | Plant response rating, Soybean (soybean (Glycine max); [4]): 0 | Plant response rating, Soybean (soybean (Glycine max); [5]): 0 | Plant response rating, Soybean (soybean (Glycine max); [6]): 0 | Plant response rating, Goosegrass ([2]; Rate 62 g/ha, scale 0 to 100): 20 | Plant response rating, Goosegrass [2, 4]: 20 | Plant response rating, Goosegrass [2, 5]: 30 | Plant response rating, Goosegrass [2, 6]: 40 | Plant response rating, Lambsquarters ([3]; Rate 62 g/ha, scale 0 to 100): 100 | Plant response rating, Lambsquarters [3, 4]: 100 | Plant response rating, Lambsquarters [3, 5]: 100 | Plant response rating, Lambsquarters [3, 6]: 100

CCOc1cc(N2CCC(n3ccc(C(C)(C)C)n3)C2=O)ccc1C (stereo not drawn) [Compound 106]
Plant response rating, Velvetleaf ([1]; Rate 31 g/ha, scale 0 to 100): 30 | Plant response rating, Velvetleaf ([1]; Rate 62 g/ha, scale 0 to 100): 60 | Plant response rating, Velvetleaf [1, 4]: 60 | Plant response rating, Velvetleaf [1, 5]: 70 | Plant response rating, Soybean (soybean (Glycine max); Rate 31 g/ha, scale 0 to 100): 70 | Plant response rating, Soybean (soybean (Glycine max); Rate 62 g/ha, scale 0 to 100): 70 | Plant response rating, Soybean (soybean (Glycine max); [4]): 70 | Plant response rating, Soybean (soybean (Glycine max); [5]): 80 | Plant response rating, Goosegrass ([2]; Rate 31 g/ha, scale 0 to 100): 0 | Plant response rating, Goosegrass ([2]; Rate 62 g/ha, scale 0 to 100): 0 | Plant response rating, Goosegrass [2, 4]: 0 | Plant response rating, Goosegrass [2, 5]: 10 | Plant response rating, Lambsquarters ([3]; Rate 31 g/ha, scale 0 to 100): 80 | Plant response rating, Lambsquarters ([3]; Rate 62 g/ha, scale 0 to 100): 80 | Plant response rating, Lambsquarters [3, 4]: 80 | Plant response rating, Lambsquarters [3, 5]: 100
